Experimental data from PMC3973950, “Synthesis of 5-arylidine amino-1,3,4-thiadiazol-2-[(N-substituted benzyol)]sulphonamides endowed with potent antioxidants and anticancer activity induces growth inhibition in HEK293, BT474 and NCI-H226 cells” (Medicinal Chemistry Research, 2013).

Key:
[1] = Total antioxidant activity (ABTS radical cation scavenging); format: biochemical; settings: Conc. ± SD; three independent experiments in duplicate; standard trolox; read-out: IC50 inhibitory concentration, ABTS^+ radical
Experimental: The ability of the test sample to scavenge 2,2′-azinobis-(3-ethylbenzothiazoline-6-sulphonic acid) (ABTS^·+) radical cation was compared with 6-hydroxy-2,5,7,8-tetramethylchroman-2-carboxylic acid (trolox) standard (Chang et al., [2007]; Erel, [2004]; Re et al., [1999]). The ABTS^·+ radical cation was pregenerated by mixing ABTS stock solution (7 mM) with potassium persulphate (2.45 mM) (final concentration) and incubating for 12–16 h in the dark at room temperature until the reaction was complete and the absorbance was stable. The absorbance of the ABTS^·+ solution was equilibrated to 0.70 (±0.02) by diluting with water at room temperature, then 1 mL of solution was mixed with 10 μL of the test sample (0.05–10 mg/mL), and the absorbance was measured at 734 nm after 6 min. All experiments were repeated three times. The percentage inhibition of absorbance was calculated and plotted as a function of the concentration of standard and sample to determine the trolox equivalent antioxidant concentration (TEAC). To calculate the TEAC, the gradient of the plot for the sample was divided by the gradient of the plot for trolox. The IC50 inhibitory concentration (nM/mL) values of tested compounds are depicted in Table 1. The ABTS^·+ radical scavenging activity of the samples was expressed as S%=[(Acontrol-Asample)/Acontrol]×100 where A control is the absorbance of the blank control (ABTS^·+ solution without test sample), and A sample is the absorbance of the test sample.

[2] = Lipid peroxidation inhibitory activity (egg lecithin liposomes, TBA); format: biochemical; settings: Conc. ± SD; standard ascorbic acid; read-out: IC50 inhibitory concentration, Lipid peroxidation
Experimental: Egg lecithin (3 mg/mL phosphate buffer, pH 7.4) was sonicated in an ultrasonic sonicator for 10 min to ensure proper liposome formation. Test samples or standard, ascorbic acid (100 μL) of different concentrations (10, 20, 30, 40 50 and 100 μg/mL) was added to liposome mixture (1 mL); the control was without test sample. Lipid peroxidation was induced by adding ferric chloride (10 μL, 400 mM) and L-ascorbic acid (10 μL, 200 mM). After incubation for 1 h at 37 °C, the reaction was stopped by adding hydrochloric acid (2 mL, 0.25 N) containing trichloroacetic acid (150 mg/mL), thiobarbituric acid (3.75 mg/mL) and butylated hydroxy anisole (0.50 mg/mL). The reaction mixture was subsequently boiled for 15 min, cooled and centrifuged at 1,000 rpm for 15 min, and the absorbance of the supernatant was measured at 532 nm (Duh and Yen, [1997]). The % inhibition at different concentrations was calculated by the following formula %Inhibition=[1-(Vt/Vc)]×100 where V t = mean absorption of test compound, V c = mean absorption of control.
The IC50 (nM/mL) value was derived from the % inhibition at different concentrations.

[3] = DPPH radical scavenging activity; format: biochemical; settings: Conc. ± SD; standard ascorbic acid; read-out: IC50 inhibitory concentration, DPPH radical
Experimental: Compounds of SC series were evaluated for their in vitro free radical scavenging activities by 2,2-diphenyl-1-picrylhydrazyl (DPPH) assay method (Blois, [1958]; Shishoo et al., [1999]; Chhajed et al., [2007]). To determine the free radical scavenging activity, a method based on the reduction of a methanolic solution of the coloured DPPH radical was used. To a set of test tubes containing methanol (3 mL), DPPH reagent (2 mg/mL) (50 μL) was added. The initial absorbance was measured. To these test tubes, methanolic solution of different test solutions (1 mg/mL) were added (10–50 μL). Ascorbic acid (0.5 mg/mL) was also added in the concentration of 10, 20, 30, 40, 50 and 100 μL. After 20 min, absorbance was recorded at 516 nm. The experiment was performed in triplicate. The percentage reduction in absorbance was calculated from the initial and final absorbance of each solution (Dhar and Taploo, [1982]).

[4] = system: root meristem cells of Allium cepa; assay: In vitro antimitotic activity and cytogenetic analysis, Allium cepa meristem root model; format: cell-based; settings: for Aberrant cells (%) ± SEM / Chromosome breaks (%) ± SEM / MNC (‰) ± SEM (micronuclei per 1,000 cells) / Polar deviations (%) ± SEM / Stickiness (%) ± SEM / MI (%) ± SEM (mitotic index): compounds 1 mg/mL, PC (EMS) 2 × 10^−2 M; for MI (%) ± SEM (mitotic index): lower MI = higher activity, negative control 6.22
Experimental: Small bulbs (1.5–2.0 cm in diameter) of the common onion, A. cepa (2n = 16), were purchased from vendor at a local market. Prior to initiating the test, the outer scales of the bulbs and the dry bottom plate were removed without destroying the root primordia. The roots of A. cepa were grown in distilled water in Erlenmeyer flasks (200 mL capacity) under laboratory conditions (dark 24 °C). For each synthesized compound sample, after reaching a length of 3 cm (±0.5 cm), a series of six bulbs were placed in distilled water (pH 7.3) for 48 h and then onion roots were treated with the synthesized compound at 1 mg/mL concentrations of each tested compound. The test tubes were kept in an incubator at 22 ± 1 °C, and the test samples were changed daily at the same time. Several of the newly formed root tips were then cut from each bulb and examined for any visible morphological abnormalities. The bulbs with satisfactory root lengths (2–2.5 cm) were used in the study, while those with exceptionally long or short roots were discarded (on average 2–3 bulbs). Therefore, individual sets of five bulbs were used for each extract sample.
Distilled water (pH 7.3) was used as a negative control, and EMS (2 × 10^−2 M) used as a positive control mutagen (Fiskesjo, [1993], [1997]). After 24 h of exposure, several root tips were removed from the bulbs, fixed in 3:1 (v/v) ethanol (90 %)/glacial acetic acid (45 %) and stored overnight at 4 °C. The next day, they were placed in 70 % (v/v) aqueous alcohol and refrigerated until used. Allium roots were softened by digesting with HCl and rinsed the roots in water. After removing the water from the third rinse, the roots were covered with the orcein acetate stain. The roots were incubated in the stain for 12 min. During this time, the very tip of the root begins to turn red as the DNA stains the numerous small actively dividing cells at the tip. A root was transferred to the centre of a clean microscope slide, and a drop of water was added. Using a razor blade most of the unstained part of the root was cut off and discarded. The root tip was covered with a cover slip and then carefully pushed down on the cover slide with the wooden end of a dissecting probe. […] The root tip should spread out to a diameter about 0.5–1 cm. Five slides were prepared per bulb.
The following parameters were used for the determination of cytotoxicity and genotoxicity: • (i) the mitotic index (MI) was calculated as the ratio between the number of mitotic cells and the total number of cells scored and expressed as percentage using following formula as per standard procedures. Mitoticindex=Numberofdividingcells/Totalnumberofcells×100 • (ii) Chromatin aberrations (stickiness, breaks and polar deviation) were used as end points for the determination of cytogenetic effects, and micronuclei (MNC) were scored in interphase cells per 1,000 cells (‰ MNC) (Freshney, [2000]). • (iii) The most frequent abnormalities are shown in microphotographs. After 72 h of exposure to the test samples, the root lengths were measured and used as an index of general toxicity. The results for mitotic index and root length are expressed as percentage of the negative and positive controls. Visible morphological modifications, such as changes in root consistency and colour as well as the presence of swelling (c-tumours), hooks or twists in the roots, were also observed.

SMILES | IC50 [1] | IC50 [2] | IC50 [3] | Aberrant cells (%) ± SEM [4] | Chromosome breaks (%) ± SEM [4] | MNC (‰) ± SEM (micronuclei per 1,000 cells) [4] | Polar deviations (%) ± SEM [4] | Stickiness (%) ± SEM [4] | MI (%) ± SEM (mitotic index) [4] | average root length ([4]; after 72 h of treatment, negative control 3.93 cm)
O=C(NS(=O)(=O)c1nnc(N=Cc2ccccc2)s1)c1ccccc1 [Compound 9a, N-{[5-(Benzylidenamino)-1,3,4-thiadiazol-2-yl]sulphonyl} benzamide] | 73.3 ± 7.05 µM | 122 ± 18.6 µM | 134 ± 12.9 µM | 19.28 ± 5.22% | 6.22 ± 1.02% | 0.34 ± 0.15 ‰ | 8.62 ± 2.16% | 6.64 ± 2.38% | 3.22 ± 0.16% | –
O=C(NS(=O)(=O)c1nnc(N=Cc2ccc(Cl)cc2)s1)c1ccccc1 [Compound 9b, N-({5-[(4-Chlorobenzylidene)amino]-1,3,4-thiadiazol-2-yl}sulfonyl)benzamide] | 93.3 ± 10.7 µM | 133 ± 11.5 µM | 88.2 ± 11.1 µM | 24.64 ± 7.01% | 3.36 ± 0.57% | 0.42 ± 0.18 ‰ | 7.32 ± 1.24% | 9.12 ± 1.33% | 2.77 ± 0.19% | –
COc1ccccc1C=Nc1nnc(S(=O)(=O)NC(=O)c2ccccc2)s1 [Compound 9c, N-({5-[(2-Methoxybenzylidene)amino]-1,3,4-thiadiazol-2-yl}sulfonyl)benzamide] | 196 ± 16.6 µM | 102 ± 14.5 µM | 41.3 ± 4.23 µM | 38.54 ± 8.18% | – | 0.36 ± 0.14 ‰ | 7.22 ± 2.61% | 28.04 ± 6.34% | 0.53 ± 0.03% | –
COc1ccc(C=Nc2nnc(S(=O)(=O)NC(=O)c3ccccc3)s2)cc1 [Compound 9d, N-({5-[(4-Methoxybenzylidene)amino]-1,3,4-thiadiazol-2-yl}sulfonyl)benzamide] | 55.6 ± 6.98 µM | 164 ± 14.6 µM | 63.6 ± 8.35 µM | 25.33 ± 9.42% | 0.96 ± 0.46% | 0.51 ± 0.17 ‰ | 9.15 ± 6.92% | 14.48 ± 2.52% | 2.34 ± 0.19% | –
O=C(NS(=O)(=O)c1nnc(N=Cc2ccc(O)cc2)s1)c1ccccc1 [Compound 9e, N-({5-[(4-Hydroxybenzylidene)amino]-1,3,4-thiadiazol-2-yl}sulfonyl)benzamide] | 47.9 ± 9.9 µM | 134 ± 14.7 µM | 107 ± 18.1 µM | 26.74 ± 6.56% | 2.72 ± 0.94% | 0.21 ± 0.06 ‰ | 8.41 ± 1.35% | 9.88 ± 1.46% | 1.27 ± 0.11% | –
O=C(NS(=O)(=O)c1nnc(N=Cc2ccccc2O)s1)c1ccccc1 [Compound 9f, N-({5-[(2-Hydroxybenzylidene)amino]-1,3,4-thiadiazol-2-yl}sulfonyl)benzamide] | 207 ± 17.4 µM | 204 ± 20.1 µM | 80.6 ± 11.4 µM | 33.41 ± 9.47% | 1.47 ± 0.13% | 0.39 ± 0.20 ‰ | 7.33 ± 2.52% | 21.96 ± 7.22% | – | 1.06 cm
COc1cc(C=Nc2nnc(S(=O)(=O)NC(=O)c3ccccc3)s2)ccc1O [Compound 9g, N-({5-[(4-Hydroxy-3-methoxybenzylidene)amino]-1,3,4-thiadiazol-2-yl}sulfonyl)benzamide] | – | – | – | 40.48 ± 12.94% | – | 0.48 ± 0.32 ‰ | 10.26 ± 2.13% | 32.24 ± 6.92% | 0.41 ± 0.04% | –
CN(C)c1ccc(C=Nc2nnc(S(=O)(=O)NC(=O)c3ccccc3)s2)cc1 [Compound 9h, N-[(5-{[4-(Dimethylamino)benzylidene]amino}-1,3,4-thiadiazol-2-yl)sulfonyl]benzamide] | – | – | – | 29.83 ± 5.03% | 2.43 ± 0.67% | 0.31 ± 0.14 ‰ | 8.91 ± 1.56% | 16.50 ± 3.23% | 1.07 ± 0.13% | –
